Reference: a melting point compilation (Tetko et al.; mined from patent text by program, amines drawn as free bases though some values may be those of a salt)

SMILES | melting point [°C]
CCOc1ccc2nc(Cl)c(C=O)cc2c1 | 163 to 164
CCNC(=O)C1CCN(C(=O)c2cc(-c3ccccc3)c(=O)n3c2-c2sccc2CC3)CC1 | 134 to 135
OCCCc1oc(-n2cccn2)nc1-c1ccc(Cl)cc1 | 75 to 76
CC(C)N1CCN(c2ccc(-c3[nH]nc4c3C(=O)c3c(NC(=O)NN5CCOCC5)cccc3-4)cc2)CC1 | 253
O=C(O)CCC(=O)c1ccc2c(c1)oc1ccccc12 | 208 to 210
COc1ccc(N2CCN(n3ccnc3SC)CC2)cc1 | 140
Fc1nc(/C=C/c2ccccc2)cn1C(c1ccccc1)(c1ccccc1)c1ccccc1 | 167 to 170
O=C(c1cc(=O)c2cc(O)ccc2[nH]1)N1CCC(Oc2ccccc2)CC1 | 270
CC1(C)C=C(c2ccccn2)c2cc(C#N)ccc2O1 | 106 to 108
Cc1nc(C=CNC(=O)c2ccccc2)n[nH]1 | 140 to 145
CCOC(=O)/C=C/C=C/C(=O)c1cc2c(cc1C)C(C)(C)CCC2(C)C | 101 to 102
CCCCCCN(Cc1ccccn1)C(Nc1cc(C(C)(C)C)c(O)c(C(C)(C)C)c1)=C1C(=O)OC(C)(C)OC1=O | 169 to 170
COC(=O)c1cc(OCC=C(Cl)Cl)cc(Cl)c1OCC=C(Cl)Cl | 63
CC(=O)Nc1cccc(Sc2c(Cc3cccc4ccccc34)sc3c2c(=O)n(C)c(=O)n3CC(C)C)c1 | 173 to 174
CCOC(=O)n1c(C(=O)c2ccc(F)cc2)c(NC(C)=O)c2ccc(Cl)cc21 | 196 to 198
ClCCOc1ccc(OCCCl)c(Cl)c1 | 135 to 137
CN1CCC(c2cc3ccccc3c(=O)[nH]2)CC1 | 255 to 257
O=Cc1cc2c(cc1O)CCO2 | 102 to 104
CCOc1cc(OCCO)cc2c1C(=O)N(COC(=O)c1c(Cl)cccc1Cl)S2(=O)=O | 166
CN(Cc1cc(C(F)(F)F)cc(C(F)(F)F)c1)C(=O)c1ncc2ccccc2c1-c1ccccc1 | 139 to 140
CCCCCCCCCCCCCCCCCCOc1ccccc1CC(=O)CO | 59 to 60
CON=Cc1ccc2c(c1)ncn2-c1cccc(-c2cccs2)c1 | 184 to 185
CNc1nc(-c2ccc(OCCCn3ccnc3)cc2)no1 | 154 to 155
C[C@@H](N1CCN(c2ccc(Cl)cc2)C1=O)[C@@]1(c2ccc(F)cc2F)CO1 | 130 to 131
Nc1nc(N)nc(-c2nccc3ccccc23)n1 | > 250
CCC(c1ccccc1)c1n[nH]c2c1c(=O)n(-c1ccccc1)c1ncccc21 (centres undefined) | 233 to 235

SMILES | melting point [°C]
CC(C)C[C@H](NC(=O)OC(c1ccccc1)c1ccccc1)C(=O)Oc1c(Cl)c(Cl)c(Cl)c(Cl)c1Cl | 84 to 86
O=Cc1ccc(OC(F)F)c(OCC2CC2)c1 | 115 to 116
COC(=O)c1cncn1C1c2cccc(Cl)c2CC1(C)C (centres undefined) | 111 to 113
CC(=O)Oc1cc(/C=C/c2ccccc2)cc(OC(C)=O)c1 | 90 to 90.5
OC1(c2ccc(F)cc2)Cc2ccccc2C2=NCCN21 (centres undefined) | 150 to 151
Sc1nc(-c2ccc(Cl)cc2)c(-c2cccs2)[nH]1 | 274 to 276
CN(CCOc1cn(-c2ccc(F)cc2)c2cc(Cl)ccc12)CCN1CCNC1=O | 100 to 102
CCc1cc(C(=O)c2ccccc2Cl)c(-n2c(C)nnc2CNC(=O)c2cccc(C(=O)O)c2)s1 | 133 to 136
CCCCn1c(=O)c2cc(OC)c(OC)cc2c2nnc3cc4c(cc3c21)OCO4 | 299
COc1ccc([C@@H]2OC(=O)N[C@@H]2Cc2ccc(C(F)(F)F)cc2)cc1 (racemic) | 164 to 165
O=C(O)CCCc1cc(-c2ccccc2)nc2ccccc12 | 125
CCOC(=O)/C=C/c1ccc(OCCN2CCCC2=O)cc1OCc1ccccc1 | 94 to 97
CC(=O)Nc1ccc2c3c(cccc13)CC2 | 180 to 186
O=C(NCCc1ccccc1Cl)c1c(Cl)ccc2nc(N3CC[C@H](NCCO)C3)ccc12 | 170 to 172
C1=C(c2cccc3c2ccn3Cc2ccccc2)CCN(Cc2ccccc2)C1 | 154
COc1ccc(Nc2cccc(Cl)c2[N+](=O)[O-])cc1 | 73 to 74
CCC(=O)NCC1CN=C(c2ccccc2F)c2cc(Cl)ccc2N1 (centres undefined) | 131 to 133
N#Cc1ccc(CBr)c(Cl)c1 | 83 to 85
O=C(Nc1n[nH]c(=S)s1)NC(Cc1ccccc1)C(=O)NCCCc1ccccc1 (centres undefined) | 190 to 191
CC1(C)OC(=O)Nc2ccc(-c3cc(F)cc(Cl)c3)cc21 | 193 to 194
CCOC(=O)c1ccc(I)cc1N | 51 to 53
CCNc1c(C(=O)OCC)c(C)nc(OCC)c1[N+](=O)[O-] | 40 to 42
O=CC1C(=O)CCC(c2ccccc2)(c2ccccc2)C1C[N+](=O)[O-] (centres undefined) | 188
N#CC(=C1CCCCCN1)c1ccccc1 | 108 to 113
COc1ccc(CN(C(=O)Nc2ccc(C(=O)O)cc2)c2ccc3c(c2)C(C)(C)CCC3(C)C)cc1 | 117 to 121
CC(C)(NC=O)c1cc(Cl)cc(Cl)c1 | 115 to 117

Continued, values first:

melting point [°C] | SMILES
180 to 182 | O=C1Nc2ccccc2C12COc1ccc3c(c12)N(Cc1ccccn1)ON3 (centres undefined)
160 | CCOCCc1c(N=[N+]=[N-])nc(NC(=O)NCC(=O)O)nc1-c1ccccc1
230 to 232 | Cn1cc(C(=O)NCc2ccc(C#N)cc2)c(=O)c2cc(C#CCO)ccc21
200 to 202 | O=C1COc2cc(F)c([N+](=O)[O-])cc2N1
76 to 78 | Nc1ccc(CCC(=O)c2ccccc2)cc1
184 to 185 | CCCCOc1ncc(C(C)=O)cc1-c1nc2c(CC)n(CC3CC3)nc2c(=O)[nH]1
173 to 174 | COc1cc(CCCC2OC(=O)NC2=O)ccc1OCc1nc(-c2ccc3ccccc3c2)oc1C (centres undefined)
118 | CCCCCCCNC(=O)N(C)c1cccc(-c2ccc(CCC(=O)O)cn2)c1
107 to 108 | CC(C)SC[C@@H](C[C@H](O)[C@H](CC1CCCCC1)C(=O)OC(C)(C)C)C(C)C
202 to 204 | CO[C@H]1CN(c2c(F)c(N)c3c(=O)c(C(=O)O)cn([C@@H]4C[C@@H]4F)c3c2C)C[C@@H]1C1(N)CC1
262 | CC(C)(C)OC(=O)n1ccc(-c2ccc(F)cc2)c1-c1ccc(S(C)(=O)=O)cc1
200 to 202 | CCOCc1nc2c(N)nc3cc(OCc4nccn4C)ccc3c2n1CC(C)(C)O
260 to 268 | CCCCCCC(NC(=O)OCc1ccccc1)P(=O)(O)CC(=O)OC (centres undefined)
173 to 175 | O=C1CCC(N2Cc3c(OCc4ccc(Cn5cnnc5)cc4)cccc3C2=O)C(=O)N1 (centres undefined)
163 | O=C(O)c1ccc(O)c(I)c1
174 | CCOC(=O)C1=C(C)NC(N)=C(C(=O)OCC)C1c1cccc2ccccc12 (centres undefined)
126 to 128 | COC(=O)C1=C(C)NC(c2c(F)cccc2F)=NC1c1ccc(F)cc1Cl (centres undefined)
229 to 231 | CC1Sc2c(C(=O)O)c(=O)c3cc(F)c(N4CCSCC4)cc3n21 (centres undefined)
96 to 98 | CC(=O)Nc1ccc([C@@H]2CO2)cn1
156 to 157 | CCc1nc(-c2ccc(F)cc2)c(-c2ccc(S(C)(=O)=O)cc2)s1
230 to 231 | CC(C)COc1ccccc1-c1ncc(-c2nnn[nH]2)c(=O)[nH]1
259 to 261 | COC(=O)[C@H]1CC[C@H](c2[nH]nc3c2C(=O)c2c(NC(=O)NN4CCOCC4)cccc2-3)CC1
254 to 256 | CC(C)(C)c1ccc(NC(=O)NCc2ccc3c(c2)CN(C2CCC(=O)NC2=O)C3=O)cc1 (centres undefined)
173 to 174 | COc1ccc(S(=O)(=O)Nc2ccc(F)cc2Nc2ccccc2)cc1

melting point [°C] | SMILES
91 to 93 | COc1ccc(OC)c(C(=O)C#CC(=O)O)c1
263 to 268 | CC(=O)c1c(C)[nH]c(C(C)CCC(C)c2[nH]c(C)c(C(C)=O)c2C)c1C (centres undefined)
220 to 222 | O=C(NCCCCN1CCC(c2ccc3c(c2O)CCCC3)CC1)c1ccc(-c2ccc(C(F)(F)F)cc2)cc1
143 to 144 | COc1ccc(S(=O)(=O)NC(C)c2ccccc2-c2cc(F)ccc2F)cc1 (centres undefined)
168 to 169 | Cc1nnc(-c2ccc3occ(C(=O)N4CCOCC4)c3c2)o1
94 to 95 | O=S(=O)(Cc1ccc(Cl)cc1)Cc1ccc(Cl)cc1
138 | Cc1oc(Cc2ccccc2)c(C(=O)c2cc(C(C)C)c(O)c(C(C)C)c2)c1C
244 to 246 | CC(C)(C)c1cc(-c2c(NC(=O)Nc3ccc(F)cc3F)c(=O)oc3ccc(Cl)cc23)cc(C(C)(C)C)c1O
256 to 258 | Nc1c(NCCCO)c(=O)c1=O
221 to 223 | O=C(O)c1cn([C@@H]2C[C@@H]2F)c2c(Cl)c(N3CC4=C(CNC4)C3)c(F)cc2c1=O
37 to 38 | CCCCCCCCSc1ccc(C#N)c(C#N)c1
127 to 132 | CC(C)(C)c1ccc(C(=O)Nc2ccccc2C(=O)NCCc2ncc[nH]2)cc1
125 | CC(C)(C)OC(=O)C1CC(Cc2ccccc2)C(=O)N1C(=O)OC(C)(C)C (centres undefined)
129 to 132 | CCCOc1cc(=O)n(CCC)c(=O)n1Cc1ccc(-c2ccccc2C2NOC(=O)N2)cc1 (centres undefined)
101 | CCC1(CC)CC(c2ccc(F)cc2)=C(c2ccc(S(N)(=O)=O)cc2)C1
142 to 152 | CN(C(N)=S)c1ccc(-c2ncn(-c3ccc(OC(F)(F)F)cc3)n2)cc1
180 to 182 | O=C(O)c1cccc(NC(=O)C(CS)Cc2ccc(F)cc2)c1 (centres undefined)
142 to 144 | CCCCCCCCC1C=C(Oc2ccc(C(=O)O)o2)C=C2N=C3CCCCC3=C21 (centres undefined)
180 | O=C1Nc2ccccc2SCC1c1ccc(Cl)cc1 (centres undefined)
160 to 162 | Nc1ccccc1-c1csc2nc(C34CC5CC(CC(C5)C3)C4)cn12
222 to 223 | NS(=O)(=O)c1cc(C(=O)O)cc(OCc2ccsc2)c1-c1ccccc1
277 to 278 | Cc1ccc(N)cc1NC(=O)c1ccc(O)cc1
146 to 148 | COc1ccc(C)cc1NC(=O)Nc1ccc(N2CCN(C(=O)Oc3c(C)cccc3Cl)CC2)cc1
